According to patent US7214696B2, “Compositions and methods for stabilizing transthyretin and inhibiting transthyretin misfolding” (The Scripps Research Institute, priority 2002, dated 2007):
Read-outs that look alike come from different tables or passages of the source.

Key:
TTR in whole blood = target: T1, TTR in whole blood (Homo sapiens, UniProt P02766); assay: Binding stoichiometry of OH-PCBs in whole blood, Example 4
T1 construct: Whole blood was drawn from healthy volunteers; from tissue; host or cells: human whole blood from healthy volunteers
From the text: Up to two PCBs can bind to the two identical thyroid hormone binding sites in a TTR tetramer. […] Several of the hydroxylated PCBs (e.g., 16 and 22) approach a binding stoichiometry of 2.

[1] = target: T2, TTR in human blood plasma (Homo sapiens, UniProt P02766); assay: Immunoprecipitation/HPLC binding stoichiometry of PCBs and OH-PCBs in plasma, Example 4; set-up: from tissue; host or cells: human blood plasma from healthy volunteers; conditions: OH-PCB 10.8 μM in human blood plasma; post-wash lower limit
Method: After washing, the PCB or OH-PCB binding stoichiometry to TTR (≈5 μM) was evaluated by reverse phase HPLC.
A 2 mL eppendorf tube was filled with 1.5 mL of human blood plasma and 7.5 μL of a 2.16 mM DMSO solution of the PCB under evaluation. This solution was incubated at 37° C. for 24 h. A 1:1 resin/TSA slurry (187 μL) of quenched Sepharose was added to the solution and gently rocked at 4° C. for 1 h. The solution was centrifuged (16,000×g) and the supernatant divided into 3 aliquots of 400 μL each. These were each added to 200 μL of a 1:1 resin/TSA slurry of the anti-transthyretin antibody-conjugated Sepharose and slowly rocked at 4° C. for 20 min. The samples were centrifuged (16,000×g) and the supernatant removed. The resin was washed with 1 mL TSA/0.05% Saponin (Acros) (3×10 min) at 4° C., and additionally with 1 mL TSA (2×10 min) at 4° C. […]
The supernatant elution samples from the TTR antibody beads (145 μL) were loaded onto a Waters 71P autosampler. […] Detection was accomplished at 280 nm with a Waters 486 tunable absorbance detector, and the peaks were integrated to give the area of both TTR and the small molecule. In order to determine the quantity of each species, known amounts of tetrameric TTR or PCB were injected onto the HPLC. […] The ratio of small molecule to protein was calculated to yield the stoichiometry of small molecule bound to TTR in plasma.

[2] = target: wt transthyretin tetramer (Homo sapiens, UniProt P02766); assay: TTR tetramer dissociation in 6 M urea, Example 5; conditions: TTR 1.8 μM, inhibitor 3.6 μM
From the text: An inhibitor's ability to do this is most rigorously tested by measuring its efficacy at slowing tetramer dissociation in 6 M urea, a severe denaturation stress. Thus, the rates of TTR tetramer dissociation in 6 M urea in the presence and absence of 20, 21 or 27 were compared (FIG. 9).

WT TTR [3] = target: T3, WT TTR (Homo sapiens, UniProt P02766); assay: Transthyretin amyloid fibril formation assay (pH 4.4, 72 h, OD 400 nm), Example 4; type: biochemical; conditions: equimolar inhibitor and TTR concentration (3.6 μM)
Method: TTR secreted into blood from the liver appears to be the source of systemic TTR amyloid. While it is not yet clear where or how amyloid is formed in humans, the typical denaturant in cells is acid, which is effective in converting nearly all amyloidogenic peptides and proteins into amyloid and/or related aggregates. […] Hydroxylated PCBs and PCB 3 were highly efficacious as TTR fibril inhibitors. At an inhibitor concentration equal to the WT TTR concentration (3.6 μM), only 12–50% of the normal amount of fibril formation was observed after a 72 h incubation period.
The compounds were dissolved in DMSO at a concentration of 720 μM. Five μL of a solution of the compound being evaluated was added to 0.5 mL of a 7.2 μM TTR solution in 10 mM phosphate pH 7.6, 100 mM KCl, 1 mM EDTA buffer, allowing the compound to incubate with TTR for 30 min. 495 μL of […] acetate pH 4.2, 100 mM KCl, 1 mM EDTA was added, to yield final protein and inhibitor concentrations of 3.6 μM each and a pH of 4.4. The mixture was then incubated at 37° C. for 72 h, after which the tubes were vortexed for 3 sec and the optical density was measured at 400 nm. The extent of fibril formation was determined by normalizing each optical density by that of TTR without inhibitor, defined to be 100% fibril formation. Control solutions of each compound in the absence of TTR were also tested and none absorbed appreciably at 400 nm.

TTR tetramer = TTR tetramer (Homo sapiens, UniProt P02766); assay: Tetramer dissociation in 6 M urea, Example 4; type: biochemical
From the text: In addition to their high binding selectivity to plasma TTR, the OH-PCBs and PCB 3 also display excellent inhibition of TTR fibril formation in vitro. […] This is likely attributable to their high binding affinity (also consistent with their low off rate) and their non- or positively cooperative TTR binding properties which are unusual. […] Ground state stabilization raises the tetramer dissociation barrier (rate limiting step in TTR amyloidogenesis) substantially, such that the tetramer cannot dissociate on a biologically relevant timescale. […] OH-PCB 18 (3.6 μM) is believed to be an impressive amyloid inhibitor because it is an excellent kinetic stabilizer of tetrameric TTR, i.e. it prevents ⅔ of a 3.6 μM TTR sample from being amyloidogenic at pH 4.4 because TTR•18 and TTR•182 are incompetent to form amyloid, the remainder of TTR (1.18 μM) forms amyloid very inefficiently because of its low concentration. The dissociation rates of the best OH-PCB inhibitors may also be slower than expected because of TTR structural annealing around the OH-PCB, but this has not yet been evaluated as carefully as required.

[4] = target: T2, TTR in human blood plasma; type: binding; set-up: from tissue; host or cells: human blood plasma from healthy volunteers; conditions: test compound 10.8 μM, 24 h, 37° C.
Method: Human blood plasma (TTR conc. 3.6–5.4 μM) was incubated for 24 h with the test compound (10.8 μM) at 37° C. The TTR and any bound inhibitor were immunoprecipitated using a sepharose-bound polyclonal TTR antibody. The TTR with or without inhibitor bound was liberated from the resin at high pH, and the inhibitor:TTR stoichiometry was ascertained by HPLC analysis (FIG. 8).

serum TTR = target: T4, serum TTR (Homo sapiens, UniProt P02766); assay: Serum TTR tetramer stability against urea or acid denaturation (glutaraldehyde cross-linking, immunoblot), Example 3; type: in vivo; conditions: whole serum of dosed subjects, urea (0–9 M) or acid (pH 3.8–5.4)
T4 construct: from tissue; host or cells: serum of healthy human volunteers dosed orally with diflunisal
Method: Serum TTR tetramer stability towards urea denaturation was evaluated. Ten μL samples of serum were incubated (25° C.) in 90 μL of various concentrations of urea in 50 mM phosphate buffer (pH 7.0; 100 mM KCl, 1 mM EDTA, 1 mM DTT). Urea solutions were checked by refractive index to verify the concentrations prepared by weight. Glutaraldehyde cross-linking of the protein was performed by adding 10 μL of glutaraldehyde (25%). The cross-linking reaction was allowed to proceed for 4 min before it was quenched by the addition of 10 μL of NaBH4 (7% in 0.1 M NaOH). The samples were mixed with 120 μL of SDS reducing gel loading cocktail (final SDS concentration=2.5%) and boiled for 5 min.
Serum TTR tetramer stability against acid denaturation was evaluated. Ten μL samples of serum were incubated (37° C.) in 90 μL of 100 mM acidification buffer. Citrate buffer was used when a final pH of ≦3.8 was desired; acetate buffer was employed when the pH range under evaluation was 4.2–5.4. After cross-linking, samples were analyzed by SDS-PAGE and immunoblotting as described above.
Whole serum from the subjects was subjected to denaturation either by adding urea (0–9 M) or by adding acid (pH 3.8–5.4). […] Immunoblotting enables quantitative comparisons of the amount of folded TTR.

TTR in human serum = TTR in human serum (Homo sapiens, UniProt P02766); conditions: diflunisal 100 μM in serum
Method: A 1:1 gel/10 mM Tris.HCl, pH 8.0/140 mM NaCl/0.025% NaN3(TSA) slurry (62.5 μL) of Sepharose was added to 500 μL of serum and incubated at 4° C. for 1 h. Following centrifugation, 400 μL of supernatant was added to 200 μL of a 1:1 gel/TSA slurry of the anti-TTR antibody-conjugated Sepharose and slowly rocked at 4° C. for 20 min. After centrifugation, the gel was washed with 1 mL of TSA/0.05% saponin (Fisher Scientific) (twice, 10 min each), and additionally with 1 mL of TSA (once, 10 min) at 4° C. […] After gentle rocking at 4° C. for 30 min, the sample was centrifuged and 145 μL of the supernatant was removed.

WT TTR [5] = target: T3, WT TTR; assay: Stagnant acid-mediated fibril formation assay (turbidity, pH 4.4, 72 h), Example 2; conditions: 3.6 TM TTR, 37° C.
Method: Each compound was subjected to a stagnant fibril formation assay. […] The mixture was vortexed and incubated for 30 min (25° C.), at which time the pH was lowered to 4.4 with 500 TL of 200 mM acetate, 100 mM KCl and 1 mM EDTA (pH 4.2). The final 1 mL solution was vortexed and incubated for 72 h at 37° C. without agitation. After 72 h, the cuvettes were vortexed to suspend any fibrils present, and the turbidity of the suspension was measured at 350 and 400 nm using a UV-vis spectrometer. […] All assays were performed in triplicate and all compounds were assayed using wild-type TTR.
After incubation of each mixture for 72 h (37° C.), the turbidity was measured at 350 and 400 nm using a UV-vis spectrometer. All amyloid fibril formation data was normalized to WT TTR amyloidogenesis in the absence of inhibitor, assigned to be 100% fibril formation.

[6] = Serum chemistry and side effects in healthy volunteers given diflunisal, Example 3; type: in vivo, human
From the text: (§1) Thirty healthy volunteers (25 male, 5 female) were enrolled after informed consent was given. The subjects ranged from 23 to 53 years of age (mean age, 37.6±8.8) with a mean body weight of 78.0±12.1 kg. […] This study design was approved by the Human Subjects Committee of Scripps Clinic, Scripps Green Hospital, The Scripps Research Institute, and The Scripps General Clinical Research Center.

V122I TTR = target: T5, V122I TTR (Homo sapiens, UniProt P02766, V142I); assay: Acid-mediated amyloidogenesis of TTR variant V122I, Example 3; type: biochemical
T5 construct: made in house; host or cells: Escherichia coli BL21/DE3 Epicurian gold, pmmHα plasmid
Method: (§2) Recombinant WT TTR and variants were expressed in BL21/DE3 Epicurian gold Escherichia coli (Stratagene) transformed with the pmmHα plasmid containing the TTR and ampicillin-resistance genes. Expression and purification were performed as described previously (Lashuel et al., Biochemistry 1999; 38: 13560–73).
(§3) Fibril formation assay was carried out as follows. A recombinant TTR stock solution (7.2 μM) was diluted 1:1 with 100 mM acidification buffer. Citrate buffer was used when a final pH of ≦3.8 was desired; acetate buffer was employed when the pH range under evaluation was 4.2–6.0, and phosphate buffer was utilized for evaluating amyloidogenesis at pH 6.5. Samples were incubated at 37° C. for 72 h without stirring after acidification. The extent of fibril formation was probed by turbidity measurements at […].
(§4) More than 80 TTR mutations predispose individuals to hereditary amyloidosis by sequence dependent alterations of the denaturation energy landscape.

[7] = cited from earlier work
TTR [8] = target: T6, TTR (Homo sapiens, UniProt P02766); assay: Rate of acid-mediated (pH 4.4) amyloid fibril formation, Example 3; type: biochemical; set-up: made in house; host or cells: Escherichia coli BL21/DE3 Epicurian gold, pmmHα plasmid; conditions: diflunisal 5, 10, 20 and 60 μM
Method: as §3

[9] = Serum diflunisal levels in healthy volunteers (HPLC), Example 3; type: in vivo; conditions: both sexes, human, oral
Method: as §1
Serum diflunisal levels were measured. One hundred μL of serum was added to 900 μL of acetonitrile to precipitate the proteins. Following centrifugation, 100 μL of supernatant was added to 900 μL of 100 mM aqueous triethylamine, pH 11.5. After filtration, 100 μL of each sample was injected on a Keystone 3-cm C18 reverse-phase column using a 40–100% gradient of solution B over 10 min (solution A: 94.8% water/5% acetonitrile/0.2% trifluoroacetic acid; solution B: 94.8% acetonitrile/5% water/0.2% trifluoroacetic acid), controlled by a Waters 600E multisolvent delivery system.

V30M TTR = target: T7, V30M TTR (Homo sapiens, UniProt P02766, V50M); assay: Acid-mediated amyloidogenesis of TTR variant V30M, Example 3; type: biochemical
T7 construct: made in house; host or cells: Escherichia coli BL21/DE3 Epicurian gold, pmmHα plasmid
Method: as §2, §3, §4

TTR [10] = target: T6, TTR; assay: Rate of urea-mediated (6.5 M) TTR tetramer dissociation by CD, Example 3; type: biochemical; set-up: made in house; host or cells: Escherichia coli BL21/DE3 Epicurian gold, pmmHα plasmid; conditions: 6.5 M urea; diflunisal 5, 10, 20 and 60 μM
Method: Rate of TTR tetramer dissociation was measured by circular dichroism spectroscopy. The evaluation of tetramer dissociation rates was carried out using recombinant TTR (3.6 μM) samples in 6.5 M urea, a concentration in the post-transition region for tertiary structural change (Hammarstrom et al., Proc Natl Acad Sci USA 2002; 99: 16427–32). The far-UV CD spectra of TTR (210–220 nm) as a function of time was measured to evaluate the slow tetramer dissociation rate by linking it to fast tertiary structural changes.

Compound: O=C(O)c1ccc2nc(-c3ccccc3)oc2c1 [Compound 21]
- Equivalents Bound (Blood) (TTR in whole blood): 1.33
- Equivalents Bound (Plasma) [1]: 1.40 ± 0.22
- effect on dissociation of TTR [2]: did not hinder the dissociation of TTR at all

Compound: 3′,5′-Difluorobiphenyl-4-carboxylic acid [Compound 18]
- efficacy as fibril inhibitor (WT TTR [3]): among the highest observed to date
- tetramer dissociation in 6 M urea (TTR tetramer): dramatically slowed tetramer dissociation in 6 M urea
- inhibitor:TTR binding stoichiometry in human blood plasma [4]: displayed the highest binding stoichiometries
- Equivalents Bound (Plasma) [1]: 1.36 ± 0.21

Compound: O=C(O)c1cc(-c2ccc(F)cc2F)ccc1O [diflunisal]
- stability of serum TTR against denaturation (serum TTR): stabilizes serum TTR against denaturation stresses
- binding stoichiometry in subjects (TTR in human serum): 0.8–1
- reduction of TTR amyloidogenesis (WT TTR [5]; 3.6 TM diflunisal): 63%
- reduction of TTR amyloidogenesis (WT TTR [5]; 7.2 TM diflunisal): 97%
- level of BUN ([6]; 250 mg bid group): increased slightly
- serum level of albumin ([6]; 250 mg bid group): decreased moderately
- level of BUN ([6]; 500 mg bid group): increased slightly
- level of creatinine ([6]; 500 mg bid group): increased slightly
- serum level of albumin ([6]; 500 mg bid group): decreased significantly
- side effects ([6]; 125, 250 or 500 mg bid for 7 days, during or after the study): No obvious side effects were observed
- inhibition of V122I amyloidogenesis (V122I TTR): inhibits both V122I and V30M amyloidogenesis in a dose dependent fashion
- diflunisal concentration in blood ([7]; 4 h after a single 500 mg dose): > 300 µM
- diflunisal concentration in blood ([7]; 20 h after a single 500 mg dose): exceed 30 μM
- blood-brain barrier penetration ([7]; in vivo): cannot cross the blood-brain barrier
- half-life ([7]; in vivo): 8 to 10 h
- sustained plasma concentration ([7]; orally administered, 250 mg twice daily): exceeding 100 TM
- protein bound ([7]; serum): Greater than 99%
- rate of acid mediated amyloid fibril formation (TTR [8]): dose dependent slowing
- concentration at 4 h after the 13th dose (day 8) ([9]; 125 mg twice a day, 125 mg bid): 20.1 ± 7.1 µM
- concentration at 12 h after the 13th dose (day 8) ([9]; 125 mg twice a day, 125 mg bid): 6.9 ± 3 µM
- concentration at 4 h after the 13th dose (day 8) ([9]; 250 mg twice a day, 250 mg bid): 234 ± 76 µM
- concentration at 12 h after the 13th dose (day 8) ([9]; 250 mg twice a day, 250 mg bid): 146 ± 38.9 µM
- concentration at 4 h after the 13th dose (day 8) ([9]; 500 mg twice a day, 500 mg bid): 517 ± 79.5 µM
- concentration at 12 h after the 13th dose (day 8) ([9]; 500 mg twice a day, 500 mg bid): 422 ± 78.1 µM
- inhibition of V30M amyloidogenesis (V30M TTR): inhibits both V122I and V30M amyloidogenesis in a dose dependent fashion
- rate of urea-mediated dissociation (TTR [10]): dose dependent slowing
